Each structure is given as a SMILES string. Like-named read-outs stand apart in the source and are kept apart here.

One data set deals with OCI-AML-3 cells. The data set is described as follows: Antiproliferative activity, CellTiter-Glo, 7 days (Test Example 2), OCI-AML-3. The format is cell-based. The settings on record: Homo sapiens, 168 h, 7 days incubation, read-out: OCI-AML3 IC50. From the text: (§1) [0134] 1. Experimental Principle: MV-4-11, Molm-13, and OCI-AML-3 cells are human hematologic tumor cell lines harboring the Menin-MLL fusion. HL-60 is a wild-type human hematologic tumor cell line without Menin-MLL fusion. […] 2. Experimental Materials: MV-4-11, Molm-13, OCI-AML-3, and HL-60 cells were all purchased from Cobioer; CellTiter-Glo® was purchased from Promega (Cat. #G7571); RPMI-1640 was purchased from Viva Cell (Cat. #C3010-0500); IMDM was purchased from Viva Cell (Cat. #C3040-0500); fetal bovine serum (FBS) was purchased from Biosera (Cat. #FB-1058/500); penicillin-streptomycin was purchased from BasalMedia (Cat. #S110JV); 0.25% Trypsin-EDTA was purchased from BasalMedia (Cat. #S310KJ); dimethyl sulfoxide (DMSO) was purchased from Sinopharm (Cat. #30072418); 96-well plates were purchased from Corning (Cat. #3610); incubator was obtained from PHCbi (Model: MCO-18AC); inverted microscope was obtained from Mingmei (Cat. #MI52-0); automated cell counter was obtained from BodBoge (Model: JSY-SC-031N); microplate reader was obtained from PerkinElmer (Model: Envision); data processing software: GraphPad Prism 8.0. 3. […] After incubation at room temperature for 10 minutes, luminescence values were read using the EnVision microplate reader, and IC50 values were calculated using GraphPad Prism 8.0 software. […]
(In general: ATP-based viability assays read luminescence as a measure of living cells.)

The test system of the next data set is Molm-13 cells. The data set is described as follows: Antiproliferative activity, CellTiter-Glo, 7 days (Test Example 2), Molm-13. The format is cell-based. The settings on record: Homo sapiens, 168 h, 7 days incubation, read-out: MOLM13 IC50.
Description: as §1

The nature of data set [1]: Pharmacokinetics in rats after single IV and PO administration (LC-MS/MS). It is filed as in vivo, male SD rats. The settings on record: SD rats. Here is the method: • 1. Objective: This study aimed to characterize the pharmacokinetic properties of selected compounds from the examples of the present invention in SD rats following single intravenous (IV) injection and oral (PO) administration using LC-MS/MS methodology. • 2. Experimental Materials: Test compounds were prepared according to the examples of the present invention; male SD rats were obtained from the Laboratory Animal Department of Shanghai Institute of Planned Parenthood Research (License No. SCXK(Shanghai)2018-0006) or Shanghai Jihui Laboratory Animal Breeding Co., Ltd. (License No. SCXK(Shanghai)2022-0009). • 3. Experimental Methods: Preparation of 0.5% methylcellulose: 5 g of methylcellulose was weighed and dissolved in 1000 mL of purified water. Preparation of 0.5% methylcellulose (pH = 5.03): 5 g of methylcellulose was weighed and dissolved in 1000 mL of purified water, and the pH was adjusted to 5.03 with 100 mM citric acid.
Preparation of oral formulations: The required amount of test compound was weighed and dissolved in 0.5% methylcellulose solution or 0.5% methylcellulose (pH = 5.03) to obtain a suspension or solution at 1 or 3 mg/mL.
Preparation of intravenous injection formulations: The required amount of test compound (EB229, EB300, EB341, EB342) was weighed and dissolved in 0.5 mL dimethyl sulfoxide to prepare a 4 mg/mL solution. To 0.25 mL of this solution, 0.5 mL of polyethylene glycol 15-hydroxystearate (Solutol) and 4.25 mL of normal saline were added to obtain a 0.2 mg/mL solution. For EB834, 6 mg was weighed and dissolved in 0.1 mL dimethyl sulfoxide, followed by addition of 0.2 mL polyethylene glycol 15-hydroxystearate (Solutol) and 1.7 mL normal saline to obtain a 3 mg/mL solution.
Dosing: Male SD rats were fasted overnight prior to oral (PO) administration; fasting was not required for the single intravenous (IV) injection group. Food was provided 4 hours post-dosing.
Sample Collection: Blood was collected from the jugular vein or other suitable veins, with 0.2 mL collected at each time point. Samples were placed in tubes containing dipotassium ethylenediaminetetraacetate and kept on ice prior to centrifugation. Within 1 hour of blood collection, samples were centrifuged at 6800 × g for 6 minutes at 2-8°C and stored at -80°C.

The IC50 is the point on the concentration scale where inhibition reaches its midpoint. For orientation: AUC(0-t) means exposure summed from dosing to a finite time, without extrapolation to infinity. Broadly, the Cmax is the maximum level reached in the sampled fluid or tissue. As for `CCN(C(=O)c1cc(F)ccc1N1CCN([C@@H]2CCN([C@H](CCCN(C)CCOC)C(C)C)C2)c2ncncc21)C(C)C` [Example 3], the IC50 in the data set on OCI-AML-3 cells was 103 nM; with Molm-13 cells, 26.7 nM. The “PO F” value in data set [1] (PO 30 mg/kg vs IV 3 mg/kg) came to 172%. Further, the AUC(0-t) turned out to be 494 ng·h/mL in data set [1] (rat, in vivo, IV 3 mg/kg, read-out: IV AUC(0-t)) and 8500 ng·h/mL in data set [1] (rat, in vivo, PO 30 mg/kg, 0.5% MC (pH 5.03), read-out: PO AUC(0-t)). For the same compound, in data set [1] (rat, in vivo, IV 3 mg/kg, read-out: IV CL), the clearance was 59.2 mL/min/kg. Also, the Cmax in data set [1] (rat, in vivo, IV 3 mg/kg, read-out: IV Cmax) amounted to 193 ng/mL; in data set [1] (rat, in vivo, PO 30 mg/kg, 0.5% MC (pH 5.03), read-out: PO Cmax), 1140 ng/mL. Also, the Vd in data set [1] (rat, in vivo, IV 3 mg/kg, read-out: IV Vss) stood at 203 L/kg. The half-life in data set [1] (rat, in vivo, IV 3 mg/kg, read-out: IV t1/2 (converted)) was 52.9 h; in data set [1] (rat, in vivo, PO 30 mg/kg, 0.5% MC (pH 5.03), read-out: PO t1/2 (converted)) it was 21.3 h.
